From patent US10760110B2, “Antibiotic testing and screening system” (priority 2017, dated 2020)
Where two headings read alike, the source gives them in different places.

Test system: K. pneumoniae NVT1001 strains with ESBL or AmpC β-lactamase plasmids
Assay: Etest MIC of β-lactams, OmpK35/36 loss, ΔramR and/or extended-spectrum β-lactamase and AmpC β-lactamase (Table 8)
Assay type: cell-based, Klebsiella pneumoniae
Details: Klebsiella pneumoniae
Experimental: DNA fragments of the resistance genes along with their flanking regions were amplified from clinical plasmids via PCR with specific primer pairs. The resulting PCR fragments were digested and then cloned into the plasmid pACYC177 or pACYC184. The resulting plasmids were then transformed into K. pneumoniae strain NVT1001 via electroporation. The recombinant bacteria were plated onto LB agar plates containing kanamycin (50 mg/L) or chloramphenicol (50 mg/L), and the presence of the cloned gene was confirmed via PCR and DNA sequencing.
The MICs of antibiotics were determined using the Etest (Biodisk AB, Sweden) according to the manufacturer's instructions. The MICs from the Etest, which fall between standard two-fold dilutions, were rounded up to the next highest two-fold value. The MICs of ceftazidime and cefotaxime against K. pneumoniae NVT1001 harbouring the pACYC177 plasmid with blaOXA-48 were further determined using a broth microdilution test according to the recommendations of the CLSI,^25 and the results were interpreted according to the breakpoints established by the CLSI in 2017.^25 Meanwhile, due to the lack of CLSI breakpoints in 2016 and 2017, the results for cephalothin were interpreted according to the breakpoints established by the CLSI in 2015,^26 and the results for moxifloxacin were interpreted according to the breakpoints established by the EUCAST in 2017.^27

[1] = CMY-2 on pACYC177, WT (NVT1001), read-out: MIC
[2] = CMY-2 on pACYC177, Δ35 (ΔompK35 mutant)
[3] = CMY-2 on pACYC177, Δ35/36 (ΔompK35/36 mutant)
[4] = CMY-2 on pACYC177, Δ36 (ΔompK36 mutant)
[5] = CMY-2 on pACYC177, ΔramR mutant
[6] = CMY-2 on pACYC177, ΔramRΔ35 (ΔramRΔompK35 mutant)
[7] = CMY-2 on pACYC177, ΔramRΔ35/36 (ΔramRΔompK35/36 mutant)
[8] = CMY-2 on pACYC177, ΔramRΔ36 (ΔramRΔompK36 mutant)
[9] = CTX-M-14 on pACYC177, WT (NVT1001), read-out: MIC
[10] = CTX-M-14 on pACYC177, Δ35 (ΔompK35 mutant)
[11] = CTX-M-14 on pACYC177, Δ35/36 (ΔompK35/36 mutant)
[12] = CTX-M-14 on pACYC177, Δ36 (ΔompK36 mutant)
[13] = CTX-M-14 on pACYC177, ΔramR mutant
[14] = CTX-M-14 on pACYC177, ΔramRΔ35 (ΔramRΔompK35 mutant)
[15] = CTX-M-14 on pACYC177, ΔramRΔ35/36 (ΔramRΔompK35/36 mutant)
[16] = CTX-M-14 on pACYC177, ΔramRΔ36 (ΔramRΔompK36 mutant)
[17] = CTX-M-15 on pACYC177, WT (NVT1001), read-out: MIC
[18] = CTX-M-15 on pACYC177, Δ35 (ΔompK35 mutant)
[19] = CTX-M-15 on pACYC177, Δ35/36 (ΔompK35/36 mutant)
[20] = CTX-M-15 on pACYC177, Δ36 (ΔompK36 mutant)
[21] = CTX-M-15 on pACYC177, ΔramR mutant
[22] = CTX-M-15 on pACYC177, ΔramRΔ35 (ΔramRΔompK35 mutant)
[23] = CTX-M-15 on pACYC177, ΔramRΔ35/36 (ΔramRΔompK35/36 mutant)
[24] = CTX-M-15 on pACYC177, ΔramRΔ36 (ΔramRΔompK36 mutant)
[25] = DHA-1-AmpR on pACYC177, WT (NVT1001), read-out: MIC
[26] = DHA-1-AmpR on pACYC177, Δ35 (ΔompK35 mutant)
[27] = DHA-1-AmpR on pACYC177, Δ35/36 (ΔompK35/36 mutant)
[28] = DHA-1-AmpR on pACYC177, Δ36 (ΔompK36 mutant)
[29] = DHA-1-AmpR on pACYC177, ΔramR mutant
[30] = DHA-1-AmpR on pACYC177, ΔramRΔ35 (ΔramRΔompK35 mutant)
[31] = DHA-1-AmpR on pACYC177, ΔramRΔ35/36 (ΔramRΔompK35/36 mutant)
[32] = DHA-1-AmpR on pACYC177, ΔramRΔ36 (ΔramRΔompK36 mutant)
[33] = SHV-12 on pACYC177, WT (NVT1001), read-out: MIC
[34] = SHV-12 on pACYC177, Δ35 (ΔompK35 mutant)
[35] = SHV-12 on pACYC177, Δ35/36 (ΔompK35/36 mutant)
[36] = SHV-12 on pACYC177, Δ36 (ΔompK36 mutant)
[37] = SHV-12 on pACYC177, ΔramR mutant
[38] = SHV-12 on pACYC177, ΔramRΔ35 (ΔramRΔompK35 mutant)
[39] = SHV-12 on pACYC177, ΔramRΔ35/36 (ΔramRΔompK35/36 mutant)
[40] = SHV-12 on pACYC177, ΔramRΔ36 (ΔramRΔompK36 mutant)
[41] = no supplemental plasmid, WT (NVT1001), read-out: MIC
[42] = no supplemental plasmid, Δ35 (ΔompK35 mutant)
[43] = no supplemental plasmid, Δ35/36 (ΔompK35/36 mutant)
[44] = no supplemental plasmid, Δ36 (ΔompK36 mutant)
[45] = no supplemental plasmid, ΔramR mutant
[46] = no supplemental plasmid, ΔramRΔ35 (ΔramRΔompK35 mutant)
[47] = no supplemental plasmid, ΔramRΔ35/36 (ΔramRΔompK35/36 mutant)
[48] = no supplemental plasmid, ΔramRΔ36 (ΔramRΔompK36 mutant)

Measured: MIC

C[C@@H](O)[C@H]1C(=O)N2C(C(=O)O)=C(S[C@@H]3CN[C@H](C(=O)Nc4cccc(C(=O)O)c4)C3)[C@H](C)[C@H]12 [Ertapenem]
8 µg/mL: [11]
4 µg/mL: [4] | [35] | [39] | [40] | [47] | [48]
2 µg/mL: [43]
0.015 µg/mL: [41]
0.125 µg/mL: [9] | [37] | [38] | [45] | [46]
0.03 µg/mL: [42] | [44]
> 32 µg/mL: [3] | [7] | [8] | [19] | [23] | [24] | [27] | [31] | [32]
0.25 µg/mL: [10] | [12] | [13] | [14]
1 µg/mL: [1] | [2] | [5] | [6] | [25] | [26] | [28] | [29] | [30]
0.5 µg/mL: [17] | [18] | [20] | [21] | [22]
16 µg/mL: [15] | [16]
0.06 µg/mL: [33] | [34] | [36]

C[C@@H](O)[C@H]1C(=O)N2C(C(=O)O)=C(SCCN=CN)C[C@H]12 [Imipenem]
> 32 µg/mL: [3]
0.5 µg/mL: [9] | [10] | [12] | [15] | [16] | [17] | [18] | [20] | [21] | [25] | [26] | [28] | [33] | [34] | [36] | [40] | [41] | [42] | [43] | [44] | [47] | [48]
1 µg/mL: [1] | [2] | [5] | [6] | [11] | [35] | [39]
2 µg/mL: [23] | [24]
4 µg/mL: [4] | [19]
0.25 µg/mL: [13] | [14] | [22] | [29] | [30] | [37] | [38] | [45] | [46]
32 µg/mL: [7] | [8] | [27]
16 µg/mL: [31] | [32]

C[C@@H](O)[C@H]1C(=O)N2C(C(=O)O)=C(S[C@@H]3CN[C@H](C(=O)N(C)C)C3)[C@H](C)[C@H]12 [Meropenem]
16 µg/mL: [3]
0.25 µg/mL: [1] | [2] | [5] | [6] | [17] | [18] | [20] | [21] | [22] | [25] | [26] | [28] | [30]
4 µg/mL: [23] | [24] | [31]
0.06 µg/mL: [9] | [37] | [38] | [41] | [42] | [44] | [45] | [46]
0.125 µg/mL: [10] | [12] | [13] | [14] | [29] | [33] | [34] | [36]
0.5 µg/mL: [43]
8 µg/mL: [7] | [8] | [19] | [27] | [32]
2 µg/mL: [4] | [11] | [15] | [16] | [39] | [47] | [48]
1 µg/mL: [35] | [40]
